Values joined by “and” are separate entries in the source; they are usually repeats but may differ in a detail not shown here. Identical values can stand only once. After the bases stand the sugars from the 5' end (letter, count) and the backbone: PS all phosphorothioate, else s phosphorothioate and o phosphodiester by linkage. Methylation of C is not given here. e = 2'-O-(2-methoxyethyl) (MOE); k = constrained ethyl (cEt); d = 2'-deoxy (DNA)
Molecular target: SOD1
Settings: ASO

Question: Which results are given for “CAGGATACATTTCTACAGCT (sugars e5 d10 e5, linkages s1 o3 s11 o2 s2)”?
Answer: target mRNA inhibition (A431, 0.062 µM): 33%; target mRNA inhibition (A431, 0.185 µM): 29%; target mRNA inhibition (A431, 0.556 µM): 52%; target mRNA inhibition (A431, 0.6 µM): 50%; target mRNA inhibition (A431, 1.667 µM): 62%; target mRNA inhibition (A431, 5 µM): 74%; target mRNA inhibition (A431, 15 µM): 82%; target mRNA inhibition (SH-SY5Y, 0.062 µM): 10%; target mRNA inhibition (SH-SY5Y, 0.185 µM): 10%; target mRNA inhibition (SH-SY5Y, 0.556 µM): 33%; target mRNA inhibition (SH-SY5Y, 1.667 µM): 61%; target mRNA inhibition (SH-SY5Y, 5 µM): 81%; target mRNA inhibition (SH-SY5Y, 15 µM): 92%

Question: With “CAGTCCTTTAATGCTTCCCC (sugars e5 d10 e5, PS)” as the sequence, how does the target mRNA inhibition (HepG2, 5 µM) read?
Answer: Its target mRNA inhibition is 51% and 40%.

Question: With “CAGTGTGCGGCCAATGATGC (sugars e5 d10 e5, PS)” as the sequence, how does the target mRNA inhibition (HepG2, 5 µM) read?
Answer: The target mRNA inhibition was 0%.

Question: How did the target mRNA inhibition (A431, 0.12 µM) turn out when “CAGTGTTTAATGTTTA (sugars kekeddddddddekek, linkages s1 o3 s8 o1 s2)” was run?
Answer: The target mRNA inhibition was 19%.

Question: What about the target mRNA inhibition (A431, 0.6 µM) of the same sequence?
Answer: The target mRNA inhibition was 18%.

Question: And the target mRNA inhibition (A431, 3 µM)?
Answer: Its target mRNA inhibition is 36%.

Question: What about the target mRNA inhibition (A431, 15 µM) of the same sequence?
Answer: Its target mRNA inhibition is 55%.

Question: And the target mRNA inhibition (HepG2, 0.222 µM)?
Answer: The target mRNA inhibition was 50%.

Question: What about the target mRNA inhibition (HepG2, 0.667 µM) of the same sequence?
Answer: The target mRNA inhibition was 67%.

Question: And the target mRNA inhibition (HepG2, 2 µM)?
Answer: The target mRNA inhibition was 81%.

Question: And the target mRNA inhibition (HepG2, 6 µM)?
Answer: Its target mRNA inhibition is 86%.

Question: “CATAATAAGTGCCATAC (sugars e2 k2 d9 k2 e2, PS)” was tested. Which target mRNA inhibition (HepG2, 5 µM) did it give?
Answer: The target mRNA inhibition was 34%.

Question: For “CATCGGCCACACCATCTTTG (sugars e5 d10 e5, PS)”, which target mRNA inhibition (HepG2, 5 µM) is on record?
Answer: Its target mRNA inhibition is 34% and 38%.

Question: “CATCTGTGATTTAAGTC (sugars e2 k2 d9 k2 e2, PS)” was tested. Which target mRNA inhibition (HepG2, 5 µM) did it give?
Answer: Its target mRNA inhibition is 48%.

Question: How did the target mRNA inhibition (HepG2, 5 µM) turn out when “CATCTGTGATTTAAGTCTGG (sugars e5 d10 e5, PS)” was run?
Answer: The target mRNA inhibition was 29%.

Question: With “CATGGAATCCATGCAGG (sugars e3 k2 d7 k2 e3, PS)” as the sequence, how does the target mRNA inhibition (HepG2, 3 µM) read?
Answer: Its target mRNA inhibition is 14%.

Question: With “CATGGACCACCAGTGTGCGG (sugars e5 d10 e5, PS)” as the sequence, how does the target mRNA inhibition (HepG2, 5 µM) read?
Answer: The target mRNA inhibition was 25%.

Question: “CATTTCCACCTTTGCCC (sugars e3 k2 d7 k2 e3, PS)” was tested. Which target mRNA inhibition (HepG2, 3 µM) did it give?
Answer: The target mRNA inhibition was 73%.

Question: How did the target mRNA inhibition (HepG2, 3 µM) turn out when “CATTTCTACAGCTAGCA (sugars e3 k2 d7 k2 e3, PS)” was run?
Answer: The target mRNA inhibition was 34%.

Question: Which target mRNA inhibition (HepG2, 5 µM) does the source give for “CCAAGTGATCATAAATC (sugars e2 k2 d9 k2 e2, PS)” here?
Answer: The target mRNA inhibition was 48%.

Question: Which target mRNA inhibition (HepG2, 5 µM) does the source give for “CCATACAGGGTTTTTAT (sugars e2 k2 d8 k2 e3, PS)” here?
Answer: Its target mRNA inhibition is 13%.

Question: With “CCCAAGTCATCTGCTTT (sugars e3 k2 d7 k2 e3, PS)” as the sequence, how does the target mRNA inhibition (HepG2, 3 µM) read?
Answer: The target mRNA inhibition was 72%.

Question: With “CCCATCTGTGATTTAAG (sugars e2 k2 d8 k2 e3, PS)” as the sequence, how does the target mRNA inhibition (HepG2, 5 µM) read?
Answer: The target mRNA inhibition was 49%.

Question: “CCCCACACCTTCACTGG (sugars e3 k2 d7 k2 e3, PS)” was tested. Which target mRNA inhibition (HepG2, 3 µM) did it give?
Answer: The target mRNA inhibition was 14%.

Question: Which target mRNA inhibition (HepG2, 4 µM) does the source give for “CCGAGGACTGCAACGGAAAC (sugars e5 d10 e5, PS)” here?
Answer: Its target mRNA inhibition is 29%.

Question: Which target mRNA inhibition (HepG2, 3 µM) does the source give for “CCGCGACTACTTTATAG (sugars e3 k2 d7 k2 e3, PS)” here?
Answer: The target mRNA inhibition was 5%.

Question: Which results are given for “CCGTCGCCCTTCAGCACGCA (sugars e5 d10 e5, PS)”?
Answer: target mRNA inhibition (A431, 0.12 µM): 0% and 5%; target mRNA inhibition (A431, 0.6 µM): 7% and 0%; target mRNA inhibition (A431, 3 µM): 17% and 0% and 7%; target mRNA inhibition (HepG2, 0.1875 µM): 0% and 3%; target mRNA inhibition (HepG2, 0.222 µM): 0% and 14%

Question: With “CCTCATAATAAGTGCCA (sugars e2 k2 d8 k2 e3, PS)” as the sequence, how does the target mRNA inhibition (HepG2, 5 µM) read?
Answer: The target mRNA inhibition was 29%.

Question: “CCTCATAATAAGTGCCATAC (sugars e5 d10 e5, PS)” was tested. Which target mRNA inhibition (HepG2, 5 µM) did it give?
Answer: Its target mRNA inhibition is 23%.

Question: Which target mRNA inhibition (HepG2, 3 µM) does the source give for “CCTTCTGCTCGAAATTGATG (sugars e5 d10 e5, PS)” here?
Answer: Its target mRNA inhibition is 53%.

Question: For “CCTTTAATGCTTCCCCACAC (sugars e5 d10 e5, PS)”, which target mRNA inhibition (HepG2, 4 µM) is on record?
Answer: Its target mRNA inhibition is 1%.

Question: “CGACTACTTTATAGGCC (sugars e3 k2 d7 k2 e3, PS)” was tested. Which target mRNA inhibition (HepG2, 3 µM) did it give?
Answer: The target mRNA inhibition was 12%.

Question: Which target mRNA inhibition (HepG2, 4 µM) does the source give for “CGATCCCAATTACACCA (sugars e2 k2 d8 k2 e3, PS)” here?
Answer: The target mRNA inhibition was 57%.

Question: With “CGATCCCAATTACACCA (sugars e3 k2 d7 k2 e3, PS)” as the sequence, how does the target mRNA inhibition (HepG2, 3 µM) read?
Answer: Its target mRNA inhibition is 12%.

Question: Which results are given for “CGCCCTTCAGCACGCACACG (sugars e5 d10 e5, PS)”?
Answer: target mRNA inhibition (HepG2, 0.1875 µM): 0%; target mRNA inhibition (HepG2, 0.75 µM): 2%; target mRNA inhibition (HepG2, 3 µM): 28%; target mRNA inhibition (HepG2, 4 µM): 23%; target mRNA inhibition (HepG2, 12 µM): 92%

Question: “CGTCGCCCTTCAGCACG (sugars e2 k2 d8 k2 e3, PS)” was tested. Which target mRNA inhibition (HepG2, 4 µM) did it give?
Answer: Its target mRNA inhibition is 52%.

Question: For “CTACAGGTACTTTAAAG (sugars e2 k2 d8 k2 e3, PS)”, which target mRNA inhibition (HepG2, 5 µM) is on record?
Answer: Its target mRNA inhibition is 2%.

Question: How did the target mRNA inhibition (HepG2, 5 µM) turn out when “CTCACTACAGGTACTTT (sugars e2 k2 d8 k2 e3, PS)” was run?
Answer: Its target mRNA inhibition is 40%.

Question: How did the target mRNA inhibition (HepG2, 5 µM) turn out when “CTCACTACAGGTACTTTAAA (sugars e5 d10 e5, PS)” was run?
Answer: Its target mRNA inhibition is 25%.

Question: How did the target mRNA inhibition (HepG2, 5 µM) turn out when “CTCATAATAAGTGCCAT (sugars e2 k2 d8 k2 e3, PS)” was run?
Answer: The target mRNA inhibition was 30%.

Question: “CTCCGCGACTACTTTATAGG (sugars e5 d10 e5, PS)” was tested. Which target mRNA inhibition (HepG2, 4 µM) did it give?
Answer: Its target mRNA inhibition is 27%.

Question: For “CTCCGCGCCTCGCCCACTCT (sugars e5 d10 e5, PS)”, which target mRNA inhibition (HepG2, 4 µM) is on record?
Answer: Its target mRNA inhibition is 40%.

Question: How did the target mRNA inhibition (HepG2, 3 µM) turn out when “CTCTCTTCATCCTTTGG (sugars e3 k2 d7 k2 e3, PS)” was run?
Answer: Its target mRNA inhibition is 2%.

Question: “CTGGCAAAATACAGGTC (sugars e2 k2 d8 k2 e3, PS)” was tested. Which target mRNA inhibition (HepG2, 5 µM) did it give?
Answer: Its target mRNA inhibition is 25%.

Question: With “CTGTATTATCTCCAAACTCA (sugars e5 d10 e5, PS)” as the sequence, how does the target mRNA inhibition (HepG2, 5 µM) read?
Answer: The target mRNA inhibition was 32% and 28%.

Question: How did the target mRNA inhibition (HepG2, 5 µM) turn out when “CTTCAATAGACACATCGGCC (sugars e5 d10 e5, PS)” was run?
Answer: Its target mRNA inhibition is 39% and 16%.
